Laboratory results reported in ChEMBL document CHEMBL6182926, “Design, Synthesis, and Biological Activity Evaluation of Deuterated Diphenyl Azole Alcohol-Based CYP51 Inhibitors” (J Med Chem, 2025).
Converted amounts (≈) assume the structure as drawn.

How the values were obtained:
Candida parapsilosis = assay: Antifungal activity against Candida parapsilosis GIM 2.190 assessed as inhibition of visible growth; format: functional; conditions: Lodderomyces parapsilosis
Candida tropicalis = assay: Antifungal activity against Candida tropicalis CGMCC 2.3739 assessed as inhibition of visible growth; format: functional
Candida albicans [1] = assay: Antifungal activity against Candida albicans CPCC 400616 assessed as inhibition of visible growth; format: functional
Nakaseomyces glabratus = assay: Antifungal activity against Clinical isolate Candida glabrata assessed as inhibition of visible growth; format: functional
Aspergillus fumigatus = assay: Antifungal activity against Aspergillus fumigatus CGMCC 3.7795 assessed as inhibition of visible growth; format: functional
Cryptococcus neoformans = assay: Antifungal activity against Cryptococcus neoformans CGMCC 2.3161 assessed as inhibition of visible growth; format: functional
Candida albicans [2] = assay: Antifungal activity against Candida albicans SC 5314 assessed as inhibition of visible growth; format: functional
Pichia kudriavzevii = assay: Antifungal activity against Candida krusei AS 2.1045 assessed as inhibition of visible growth; format: functional
[3] = Metabolic stability in human liver microsomes assessed as compound remaining measured up to 60 mins by LC-MS/MS analysis; format: ADME, Microsome; conditions: liver microsomes, read-out: Activity
[4] = Metabolic stability in human liver microsomes assessed as half life by LC-MS/MS analysis; format: ADME, Microsome; conditions: liver microsomes
[5] = Cytotoxicity against human HUVEC cells measured after 72 hrs by MTT assay; format: toxicity, cell-based

SMILES	MIC80 (Candida parapsilosis)	MIC80 (Candida tropicalis)	MIC80 (Candida albicans [1])	MIC80 (Nakaseomyces glabratus)	MIC80 (Aspergillus fumigatus)	MIC80 (Cryptococcus neoformans)	MIC80 (Candida albicans [2])	MIC80 (Pichia kudriavzevii)	remaining at 1 h [3]	half-life [4]	IC50 at 72 h [5]
[2H]C([2H])([2H])N(Cc1ccc(-c2ccc(Cl)cc2)cc1F)[C@H](C)[C@](O)(Cn1cncn1)c1ccc(F)cc1F	0.006 µg/mL (≈ 0.0119 µM)	0.006 µg/mL (≈ 0.0119 µM)	0.006 µg/mL (≈ 0.0119 µM)	0.012 µg/mL (≈ 0.0238 µM)	0.025 µg/mL (≈ 0.0496 µM)	0.012 µg/mL (≈ 0.0238 µM)	0.006 µg/mL (≈ 0.0119 µM)	0.012 µg/mL (≈ 0.0238 µM)	–	–	–
[2H]C([2H])([2H])N(Cc1ccc(-c2ccc(Cl)cc2)cn1)[C@H](C)[C@](O)(Cn1cncn1)c1ccc(F)cc1F	0.006 µg/mL (≈ 0.0123 µM)	0.006 µg/mL (≈ 0.0123 µM)	0.006 µg/mL (≈ 0.0123 µM)	0.025 µg/mL (≈ 0.0513 µM)	0.05 µg/mL (≈ 0.103 µM)	0.012 µg/mL (≈ 0.0246 µM)	0.006 µg/mL (≈ 0.0123 µM)	0.012 µg/mL (≈ 0.0246 µM)	–	–	–
O[C@@](Cn1cnnn1)(c1ccc(F)cc1F)C(F)(F)c1ccc(-c2ccc(OCC(F)(F)F)cc2)cn1 [OTESECONAZOLE]	0.006 µg/mL (≈ 0.0114 µM)	0.006 µg/mL (≈ 0.0114 µM)	0.006 µg/mL (≈ 0.0114 µM)	0.1 µg/mL (≈ 0.19 µM)	> 64 µg/mL	0.012 µg/mL (≈ 0.0228 µM)	0.006 µg/mL (≈ 0.0114 µM)	0.1 µg/mL (≈ 0.19 µM)	–	–	–
CN(Cc1ccc(N2CCN(Cc3ccc(F)cc3Br)CC2)cc1)CC(O)(Cn1cncn1)c1ccc(F)cc1F (stereo not drawn)	0.006 µg/mL (≈ 0.00953 µM)	0.006 µg/mL (≈ 0.00953 µM)	0.006 µg/mL (≈ 0.00953 µM)	0.05 µg/mL (≈ 0.0794 µM)	0.05 µg/mL (≈ 0.0794 µM)	0.012 µg/mL (≈ 0.0191 µM)	0.006 µg/mL (≈ 0.00953 µM)	0.05 µg/mL (≈ 0.0794 µM)	0.936%	2.89 min	21 µM
[2H]C([2H])([2H])N(Cc1ccc(-c2ccc(Cl)cc2F)cc1F)[C@H](C)[C@](O)(Cn1cncn1)c1ccc(F)cc1F	0.012 µg/mL (≈ 0.023 µM)	0.012 µg/mL (≈ 0.023 µM)	0.012 µg/mL (≈ 0.023 µM)	0.025 µg/mL (≈ 0.0479 µM)	0.05 µg/mL (≈ 0.0958 µM)	0.025 µg/mL (≈ 0.0479 µM)	0.012 µg/mL (≈ 0.023 µM)	0.05 µg/mL (≈ 0.0958 µM)	–	–	–
[2H]C([2H])([2H])N(Cc1ccc(-c2ccc(OC(F)(F)F)cc2)cc1F)[C@H](C)[C@](O)(Cn1cncn1)c1ccc(F)cc1F	0.012 µg/mL (≈ 0.0217 µM)	0.012 µg/mL (≈ 0.0217 µM)	0.012 µg/mL (≈ 0.0217 µM)	0.025 µg/mL (≈ 0.0452 µM)	0.05 µg/mL (≈ 0.0903 µM)	0.025 µg/mL (≈ 0.0452 µM)	0.012 µg/mL (≈ 0.0217 µM)	0.05 µg/mL (≈ 0.0903 µM)	–	–	–

More lines, main results first:

MIC80 (Candida parapsilosis)	MIC80 (Candida tropicalis)	MIC80 (Candida albicans [1])	MIC80 (Nakaseomyces glabratus)	MIC80 (Aspergillus fumigatus)	MIC80 (Cryptococcus neoformans)	MIC80 (Candida albicans [2])	MIC80 (Pichia kudriavzevii)	remaining at 1 h [3]	half-life [4]	SMILES	IC50 at 72 h [5]
0.006 µg/mL (≈ 0.0119 µM)	0.006 µg/mL (≈ 0.0119 µM)	0.006 µg/mL (≈ 0.0119 µM)	0.025 µg/mL (≈ 0.0496 µM)	0.012 µg/mL (≈ 0.0238 µM)	0.012 µg/mL (≈ 0.0238 µM)	0.006 µg/mL (≈ 0.0119 µM)	0.012 µg/mL (≈ 0.0238 µM)	–	–	[2H]C([2H])([2H])N(Cc1ccc(-c2ccc(Cl)cc2F)cc1)[C@H](C)[C@](O)(Cn1cncn1)c1ccc(F)cc1F	–
0.006 µg/mL (≈ 0.0119 µM)	0.006 µg/mL (≈ 0.0119 µM)	0.006 µg/mL (≈ 0.0119 µM)	0.025 µg/mL (≈ 0.0496 µM)	0.025 µg/mL (≈ 0.0496 µM)	0.012 µg/mL (≈ 0.0238 µM)	0.006 µg/mL (≈ 0.0119 µM)	0.012 µg/mL (≈ 0.0238 µM)	–	–	[2H]C([2H])([2H])N(Cc1ccc(-c2ccc(Cl)cc2)c(F)c1)[C@H](C)[C@](O)(Cn1cncn1)c1ccc(F)cc1F	–
0.006 µg/mL (≈ 0.0119 µM)	0.006 µg/mL (≈ 0.0119 µM)	0.006 µg/mL (≈ 0.0119 µM)	0.012 µg/mL (≈ 0.0238 µM)	0.006 µg/mL (≈ 0.0119 µM)	0.006 µg/mL (≈ 0.0119 µM)	0.006 µg/mL (≈ 0.0119 µM)	0.006 µg/mL (≈ 0.0119 µM)	4.91%	14.1 min	[2H]C([2H])([2H])N(Cc1ccc(-c2ccc(Cl)c(F)c2)cc1)[C@H](C)[C@](O)(Cn1cncn1)c1ccc(F)cc1F	–
0.006 µg/mL (≈ 0.0112 µM)	0.012 µg/mL (≈ 0.0224 µM)	0.012 µg/mL (≈ 0.0224 µM)	0.012 µg/mL (≈ 0.0224 µM)	0.025 µg/mL (≈ 0.0466 µM)	0.012 µg/mL (≈ 0.0224 µM)	0.006 µg/mL (≈ 0.0112 µM)	0.012 µg/mL (≈ 0.0224 µM)	–	–	[2H]C([2H])([2H])N(Cc1ccc(-c2ccc(OC(F)(F)F)cc2)nc1)[C@H](C)[C@](O)(Cn1cncn1)c1ccc(F)cc1F	–
0.006 µg/mL (≈ 0.0115 µM)	0.012 µg/mL (≈ 0.0231 µM)	0.006 µg/mL (≈ 0.0115 µM)	0.012 µg/mL (≈ 0.0231 µM)	0.025 µg/mL (≈ 0.048 µM)	0.012 µg/mL (≈ 0.0231 µM)	0.012 µg/mL (≈ 0.0231 µM)	0.012 µg/mL (≈ 0.0231 µM)	–	–	[2H]C([2H])([2H])N(Cc1ccc(-c2ccc(C(F)(F)F)cc2)nc1)[C@H](C)[C@](O)(Cn1cncn1)c1ccc(F)cc1F	–
0.006 µg/mL (≈ 0.0123 µM)	0.006 µg/mL (≈ 0.0123 µM)	0.006 µg/mL (≈ 0.0123 µM)	0.012 µg/mL (≈ 0.0246 µM)	0.05 µg/mL (≈ 0.103 µM)	0.006 µg/mL (≈ 0.0123 µM)	0.006 µg/mL (≈ 0.0123 µM)	0.012 µg/mL (≈ 0.0246 µM)	1.07%	2.3 min	[2H]C([2H])([2H])N(Cc1ccc(-c2ccc(Cl)cc2)nc1)[C@H](C)[C@](O)(Cn1cncn1)c1ccc(F)cc1F	–
